Assays:
[1] = tested on: cardiac myocytes; assay: Cardiac myocyte cell death under hypoxia / normoxia; format: cell-based
From the text: Accordingly, it can be seen that inhibitor compounds which bind to the novel BAX site can protect cardiac myocytes from cell death induced by hypoxia.

[2] = tested on: mitochondrial apoptosis-induced channel; details: Peixoto et al. Biochem J. 2009; cited from earlier work
[3] = biological target: T1, BAX (Homo sapiens, UniProt Q07812); assay: Liposome release assay (ANTS/DPX release by tBID-activated BAX); format: biochemical
Protocol: FIG. 3. Left: Kinetic trace of percent release of ANTS and DPX from liposomes in response to tBID activated BAX in the absence (blue) and presence of iMAC1 (green) and iMAC2 (Red). Right: Percent release after 20 minutes at different doses of iMAC1 (green), iMAC2 (red) and iMAC3 (blue). Each molecule was tested at 6, 3 and 1.5 μM, high to low doses are indicated by dark to light tones.
FIG. 18A-18B. […] B) Docked structure of […] within the novel BAX site.
iMAC1 and iMAC2 Inhibit BAX Activation in Liposome Release Assays: Liposomes containing the fluorophore, ANTS, and the quencher, DPX, were incubated with 200 nM BAX activated with 30 nM tBID resulting in BAX-mediated pore formation in the liposomal membrane and release of ANTS and DPX.

[4] = biological target: T1, BAX; assay: NMR chemical shift perturbation of 15N-BAX upon titration; format: binding
From the text: FIG. 4A-B. Measured chemical shift changes of 15N-BAX upon iMAC1 and iMAC2 titration up to a ratio of 1:4 BAX:iMAC are plotted as a function of BAX residue number. Residues with significant backbone amide chemical shift change are highlighted in orange. Highest significant chemical shift changes (twice the calculated significance threshold) are highlighted in red. […] Chemical shift changes in other regions of the structure are not localized and predominantly occur in hydrophobic residues at the hydrophobic core of the BAX structure. Regions that previously identified to be involved in regulating BAX activation are shown in violet shading (helix α1 and α6), teal shading (helix α2) and yellow shading (helix α9).
FIG. 13: Measured chemical shift changes of ^15N-BAX upon octyl glucoside detergent titration, below the detergent's CMC point, are plotted as a function of BAX residue number. Residues with significant backbone amide chemical shift change are highlighted in orange. Highest significant chemical shift changes (twice the calculated significance threshold) are highlighted in red.
Significant CSP mapped onto the surface and ribbon depictions of BAX (FIG. 5), the BAX trigger site (blue), the canonical BH3-binding site and a9 (green) are included for comparison. Affected residues are represented by the orange and red spheres in the ribbon diagram and by the orange and red bars in the plot (the calculated significance threshold is marked in orange and is equal to the average shift plus the standard deviation while values at double the threshold are marked in red).

[5] = biological target: oligomeric BAX (Homo sapiens, UniProt Q07812); assay: Ligand-observed NMR (chemical shift, STD, WATER LOGSY); format: binding; details: aromatic peaks of ligand observed
From the text: FIG. 22. iMACs bind to both monomer and oligomeric BAX.
iMACs Bind to Both Monomeric and Oligomeric BAX in vitro.

T1 sequence (Q07812 whole entry): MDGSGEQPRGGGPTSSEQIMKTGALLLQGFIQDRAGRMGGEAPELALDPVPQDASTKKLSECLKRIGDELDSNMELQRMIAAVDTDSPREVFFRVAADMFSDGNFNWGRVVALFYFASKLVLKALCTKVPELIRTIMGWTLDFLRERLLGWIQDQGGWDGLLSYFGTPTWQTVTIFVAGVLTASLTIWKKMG
Sequence of oligomeric BAX (Q07812 whole entry): as above

SMILES | protection from cell death ([1]; hypoxia, compared to vehicle (0.2% DMSO)) | effect on cardiac myocytes ([1]; normoxia) | inhibition of cytochrome c release and mitochondrial apoptosis-induced channel activity [2] | inhibition of tBID-induced BAX activation and BAX pore formation (release of ANTS and DPX from liposomes) ([3]; 200 nM BAX, 30 nM tBID, tested at 6, 3 and 1.5 μM, release after 20 minutes) | region of chemical shift changes of 15N-BAX ([4]; iMAC titration up to a ratio of 1:4 BAX:iMAC) | binding to oligomeric BAX [5] | inhibition of BAX activation and BAX-mediated pore formation in liposomal membranes ([3]; concentrations well below the critical micelle concentration (CMC)) | region of chemical shift changes of 15N-BAX ([4]; detergent titration below the detergent's CMC point) | binding to the novel BAX site by NMR analysis ([4]; octyl glucoside titration, FIG. 13)
OC(CN1CCNCC1)Cn1c2ccc(Br)cc2c2cc(Br)ccc21 (stereo not shown) [iMAC1] | protects cardiac myocytes from cell death induced by hypoxia | no effect | more potent inhibitors | – | – | – | – | – | –
Cl.Cl.FC(CN1CCNCC1)Cn1c2ccc(Br)cc2c2cc(Br)ccc21 (stereo not shown) [iMAC2] | – | – | more potent inhibitors | inhibit tBID-induced BAX activation and BAX pore formation | concentrated in the region formed by helices α3, α4, α5 and loop α3-α4 | binding to both oligomeric BAX | – | – | –
CCCCCCCCO[C@@H]1O[C@H](CO)[C@@H](O)[C@H](O)[C@H]1O [n-octyl-3-D-glucoside] | – | – | – | – | – | – | inhibits BAX activation and BAX-mediated pore formation | concentrated in the region formed by helices α3, α4, α5, α6 and loop α3-α4 | binding to the novel site that regulates BAX inhibition

From patent US20150335671A1, “SMALL-MOLECULE BINDING SITE ON PRO-APOPTOTIC BAX REGULATES INHIBITION OF BAX ACTIVITY” (ALBERT EINSTEIN COLLEGE OF MEDICINE OF YESHIVA UNIVERSITY, priority 2013, published 2015)
